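1) Cells in 96-well plates. 2) Compound, 48 h, 5 concentrations. 3) Linear interpolation between surrounding doses. 4) Unreached endpoint = highest concentration. TGI marks complete inhibition of growth.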 Where a SMILES comes first, the peptide text is derived from it. The star is where a group is joined. Boc = CC(C)(C)OC(=O)*
Assays:
Test in all cases: NCI-60 cell line screen, 48 h
UACC-257 melanoma = test system: UACC-257 melanoma
NCI-H460 lung = test system: NCI-H460 lung
DU-145 prostate = test system: DU-145 prostate
MDA-MB-231 breast = test system: MDA-MB-231 breast
T-47D breast = test system: T-47D breast
HOP-92 NSCLC = test system: HOP-92 NSCLC
SK-MEL-28 melanoma = test system: SK-MEL-28 melanoma
SF-268 CNS = test system: SF-268 CNS
NCI-H522 lung = test system: NCI-H522 lung
HCC-2998 colon = test system: HCC-2998 colon

Structure (SMILES) | TGI (UACC-257 melanoma) | TGI (NCI-H460 lung) | TGI (DU-145 prostate) | TGI (MDA-MB-231 breast) | TGI (T-47D breast) | TGI (HOP-92 NSCLC) | TGI (SK-MEL-28 melanoma) | TGI (SF-268 CNS) | TGI (NCI-H522 lung) | TGI (HCC-2998 colon)
Nc1ccc(-c2nc3cc(F)ccc3s2)cc1I | > 100 µM | 23.7 µM | > 100 µM | 30.4 µM | 97.2 µM | 39.3 µM | > 100 µM | 35.2 µM | 33.2 µM | –
CCOC(=O)/C(C#N)=C/c1ccc(CO)o1 | > 100 µM | > 100 µM | > 100 µM | > 100 µM | > 100 µM | – | > 100 µM | > 100 µM | > 100 µM | > 100 µM
COC(=O)c1ccccc1C#CCCCOS(C)(=O)=O | > 10 µM | > 10 µM | > 10 µM | > 10 µM | > 10 µM | – | > 10 µM | > 10 µM | – | > 10 µM
Oc1ccc2c(c1)CC[N+]1=C2CCC2CCCC21 (centres undefined) | – | > 100 µM | – | – | – | > 100 µM | > 100 µM | > 100 µM | – | > 100 µM
COc1ccccc1NC(=S)N/N=C(/C)c1ccccn1 | – | 3.22 µM | > 100 µM | 7.46 µM | – | > 100 µM | > 100 µM | – | > 100 µM | > 100 µM
CCN(CC)C(=S)N/N=C/c1ccccn1 | – | – | 1.27 µM | > 100 µM | > 100 µM | 2.44 µM | > 100 µM | > 66.4 µM | 1.53 µM | > 100 µM
CCc1nn(S(=O)(=O)c2ccc(C)cc2)c2c1CS(=O)(=O)CC2 | > 100 µM | > 100 µM | > 100 µM | > 100 µM | > 100 µM | – | > 100 µM | > 100 µM | – | –
Cc1ccc(-n2c(O)c3c(N)n[nH]c3c(C#N)c2=O)cc1 | > 100 µM | > 100 µM | > 100 µM | > 100 µM | > 100 µM | – | > 100 µM | > 100 µM | > 100 µM | > 100 µM
C=C(CC(=O)Nc1ccc(C(=O)OC)o1)C(=O)OC | 44.5 µM | > 100 µM | > 100 µM | 58.2 µM | 54.8 µM | > 100 µM | 44.6 µM | > 100 µM | 38 µM | –
Cc1cc(Nc2ccc(N=Nc3ccc(O)c4ncccc34)cc2)nc(C)n1 | 43.8 µM | 38 µM | 69.7 µM | 73.7 µM | 35.6 µM | 46.7 µM | > 68.7 µM | > 51.9 µM | 55 µM | –
Cn1c(-c2ccc[se]2)ccc1-c1ccc(CO)[se]1 | 0.102 µM | 18.8 µM | > 78 µM | > 88.2 µM | – | 43.2 µM | > 100 µM | > 100 µM | > 100 µM | 19.3 µM
OCC(Cn1cncn1)(c1ccc(F)cc1F)n1cncn1 (centres undefined) | > 100 µM | > 100 µM | > 100 µM | > 100 µM | > 100 µM | – | > 100 µM | > 100 µM | > 100 µM | > 100 µM
[N-]=[N+]=NC1CC(n2cc(COCC(F)(F)F)c(=O)[nH]c2=O)OC1CO (centres undefined) | > 100 µM | > 100 µM | – | – | – | > 100 µM | > 100 µM | > 100 µM | > 100 µM | > 100 µM
CC1(C)[C@@H](Cn2cnc3c(=O)[nH]c(N)nc32)CC[C@@]1(C)CO | > 100 µM | – | > 100 µM | > 100 µM | > 100 µM | > 100 µM | > 100 µM | > 100 µM | – | > 100 µM
O=C(Nc1nnc(-c2ccccc2)o1)C(SC(=S)N1CCOCC1)c1ccccc1 (centres undefined) | > 100 µM | 66.1 µM | > 100 µM | > 100 µM | > 100 µM | – | > 100 µM | – | 93.5 µM | –
CCOC(=O)CCc1c(C(=O)OCC)[nH]c(/C=C2\NC(=O)C(C)=C2CC)c1C | – | > 100 µM | 55.6 µM | 52.6 µM | 26 µM | 45.1 µM | > 100 µM | 92.1 µM | 30.7 µM | –
O=C(NNc1cn[nH]c(=O)c1Cl)/C(=C/c1ccc2c(c1)OCO2)NC(=O)c1ccccc1 | > 100 µM | > 100 µM | > 100 µM | > 100 µM | > 100 µM | > 100 µM | > 100 µM | – | – | > 100 µM
COC(=O)C(Cc1c[nH]c2ccccc12)NC(=O)C(Cc1c[nH]c2ccccc12)NC(=O)C(Cc1c[nH]c2ccccc12)NC(=O)C(Cc1c[nH]c2ccccc12)NC(=O)OC(C)(C)C (centres undefined) (Boc-WWWW-OMe; configuration not given here) | > 100 µM | > 100 µM | > 100 µM | > 100 µM | > 100 µM | – | > 100 µM | > 100 µM | > 100 µM | 38.5 µM
CCCn1c(=O)c2ccccc2[n+]2c(-c3ccc([N+](=O)[O-])cc3)csc12 | > 100 µM | > 100 µM | > 100 µM | > 100 µM | > 100 µM | > 100 µM | – | > 100 µM | 45.5 µM | > 100 µM
CCOC(=O)C(NC(=O)CC(C)C)(Nc1ccc(C(F)(F)F)cc1)C(F)(F)F (centres undefined) | > 100 µM | > 100 µM | > 100 µM | – | 81.8 µM | > 100 µM | > 100 µM | > 100 µM | > 100 µM | > 100 µM
Cc1ccc(S(=O)(=O)NC(=O)NCCC(=O)O)cc1 | > 100 µM | > 100 µM | > 100 µM | > 100 µM | > 100 µM | > 100 µM | > 100 µM | > 100 µM | > 100 µM | –
CC1(C)CN(c2ccccc2)C(=O)C1OC(=O)[C@@]1(C)C[C@@H]2C=C[C@H]1C2 (some centres undefined) | 42.5 µM | 55 µM | > 100 µM | 79.3 µM | 73.2 µM | 60.6 µM | 35.1 µM | 82.5 µM | – | –
CC(NC(=O)OCc1ccccc1)NC(=O)C(CC(=O)OC(C)(C)C)NC(=O)OC(C)(C)C (centres undefined) | > 100 µM | > 100 µM | > 100 µM | > 100 µM | > 100 µM | > 100 µM | > 100 µM | > 100 µM | > 100 µM | –
